Test results: ChEMBL document CHEMBL2074449, “P-glycoprotein mediates profound resistance to bisantrene” (Oncol Res, 1994)

Target: ATP-dependent translocase ABCB1 (Homo sapiens, UniProt P08183)
Assay: TP_TRANSPORTER: efflux in S1-B1-20 cells
Assay type: functional, cell-based

ATP-dependent translocase ABCB1, sequence (P08183 whole entry): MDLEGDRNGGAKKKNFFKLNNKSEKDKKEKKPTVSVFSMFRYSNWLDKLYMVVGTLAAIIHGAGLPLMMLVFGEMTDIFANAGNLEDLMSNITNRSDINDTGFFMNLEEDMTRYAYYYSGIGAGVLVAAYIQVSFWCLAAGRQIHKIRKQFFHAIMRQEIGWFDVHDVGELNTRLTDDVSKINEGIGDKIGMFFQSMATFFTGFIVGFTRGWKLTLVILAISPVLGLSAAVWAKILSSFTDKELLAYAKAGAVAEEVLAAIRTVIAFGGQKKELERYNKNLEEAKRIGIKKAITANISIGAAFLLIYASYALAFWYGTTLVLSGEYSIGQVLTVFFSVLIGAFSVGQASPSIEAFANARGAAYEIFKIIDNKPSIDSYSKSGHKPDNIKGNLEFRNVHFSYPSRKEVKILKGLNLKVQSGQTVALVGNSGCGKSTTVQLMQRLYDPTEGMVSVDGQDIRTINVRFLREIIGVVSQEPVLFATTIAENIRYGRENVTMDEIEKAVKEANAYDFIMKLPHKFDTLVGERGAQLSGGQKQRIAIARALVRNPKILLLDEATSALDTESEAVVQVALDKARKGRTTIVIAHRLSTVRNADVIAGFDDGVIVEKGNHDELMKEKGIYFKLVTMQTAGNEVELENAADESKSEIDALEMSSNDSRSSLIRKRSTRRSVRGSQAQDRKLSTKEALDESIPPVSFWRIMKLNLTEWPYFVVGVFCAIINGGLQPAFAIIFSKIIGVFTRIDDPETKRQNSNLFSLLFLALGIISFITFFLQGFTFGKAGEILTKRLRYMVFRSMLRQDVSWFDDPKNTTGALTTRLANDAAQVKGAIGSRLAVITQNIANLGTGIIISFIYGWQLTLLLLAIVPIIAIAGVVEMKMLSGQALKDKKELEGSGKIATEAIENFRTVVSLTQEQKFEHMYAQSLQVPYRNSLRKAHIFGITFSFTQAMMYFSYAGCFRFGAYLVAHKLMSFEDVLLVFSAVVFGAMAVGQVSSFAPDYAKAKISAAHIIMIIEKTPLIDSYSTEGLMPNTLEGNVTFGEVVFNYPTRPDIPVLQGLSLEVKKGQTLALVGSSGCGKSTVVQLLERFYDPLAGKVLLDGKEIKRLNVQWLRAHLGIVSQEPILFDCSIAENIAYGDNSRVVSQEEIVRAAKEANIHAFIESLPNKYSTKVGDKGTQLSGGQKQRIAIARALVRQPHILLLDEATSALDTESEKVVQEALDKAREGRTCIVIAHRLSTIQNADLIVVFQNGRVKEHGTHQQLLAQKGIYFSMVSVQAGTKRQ

C(=N\NC1=NCCN1)/c1c2ccccc2c(/C=N/NC2=NCCN2)c2ccccc12 [BISANTRENE]
Activity: substrate [+]
